Series [1] has as its target CYP3A4 (Homo sapiens, UniProt P08684). The series can be described thus: CYP inhibition in human liver microsomes (Eurofins protocol ITEMG232), midazolam substrate. In kind it is in vitro ADME. Also on record: using isoform-specific substrates incubated with human liver microsomes; tissue Eurofins ITEMG232; host or cells: human liver microsomes. The note with it: for CYP3A4 midazolam Inh %: 10 μM; for inhibition at 10 µM: probe midazolam, read-out: CYP3A4 midazolam Inh %. The method, then:
(§1) The following substrates were used; CYP1A phenacetin, CYP2B6 bupropion, CYP2C8 paclitaxel and amodiaquine, CYP2C9 diclofenac, CYP2C19 omeprazole, CYP2D6 dextromethorphan, CYP3A midazolam and testosterone.
(§2) At the end of the incubation, the formation of metabolite was monitored by HPLC-MS/MS as the peak area response.
A general note: Microsomes from liver hold many membrane-bound enzymes, among them those of drug oxidation.

For series [2], the target named is T1, human recombinant AT2 receptor (Homo sapiens, UniProt P50052).
T1 sequence (P50052 1-363): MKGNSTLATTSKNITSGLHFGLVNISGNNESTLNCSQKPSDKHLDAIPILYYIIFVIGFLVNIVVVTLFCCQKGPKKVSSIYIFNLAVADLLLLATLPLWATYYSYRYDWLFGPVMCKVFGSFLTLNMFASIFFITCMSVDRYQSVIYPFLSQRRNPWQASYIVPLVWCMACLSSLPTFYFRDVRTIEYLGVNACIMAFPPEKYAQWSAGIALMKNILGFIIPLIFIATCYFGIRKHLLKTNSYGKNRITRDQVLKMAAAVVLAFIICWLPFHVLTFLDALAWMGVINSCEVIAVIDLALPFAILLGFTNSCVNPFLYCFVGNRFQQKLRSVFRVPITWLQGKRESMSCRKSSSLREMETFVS
The series can be described thus: Binding to AT2 receptor, radiometric scintillation assay (Eurofins protocol ITEM26 and ITEM24). The note with it: read-out: AT2 IC50, ligand 125I CGP 42112A, 1, 10, 100 and 1000 nM, 2-4 h at 37° C.
Procedure: (§3) Compounds were evaluated for binding to the human recombinant AT2 and AT1 receptor according to Eurofins protocol ITEM26 and ITEM24 using a radiometric scintillation assay.

Series [3] deals with T2, human recombinant AT1 receptor (Homo sapiens, UniProt P30556).
T2 sequence (P30556 1-359): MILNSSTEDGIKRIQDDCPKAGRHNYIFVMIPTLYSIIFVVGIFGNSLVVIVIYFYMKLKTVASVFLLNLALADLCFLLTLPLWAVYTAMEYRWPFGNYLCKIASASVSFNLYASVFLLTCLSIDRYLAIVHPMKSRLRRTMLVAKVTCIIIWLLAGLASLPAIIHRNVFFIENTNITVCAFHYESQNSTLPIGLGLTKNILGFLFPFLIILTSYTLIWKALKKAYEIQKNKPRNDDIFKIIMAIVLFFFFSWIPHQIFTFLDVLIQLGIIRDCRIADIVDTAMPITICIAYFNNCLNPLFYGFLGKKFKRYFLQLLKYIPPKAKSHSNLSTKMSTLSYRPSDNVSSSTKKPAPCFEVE
The series can be described thus: Binding to AT1 receptor, radiometric scintillation assay (Eurofins protocol ITEM26 and ITEM24). The settings on record: read-out: AT1 IC50, ligand 125I (sar1,Ile8)-AT-II, 1 and 10 uM, 2-4 h at 37° C.
Procedure: as §3

The target of series [4] is T3, CYP2C19 (Homo sapiens, UniProt P33261).
T3 construct: using isoform-specific substrates incubated with human liver microsomes; tissue Eurofins ITEMG232; host or cells: human liver microsomes
T3 sequence (P33261 whole entry, canonical isoform): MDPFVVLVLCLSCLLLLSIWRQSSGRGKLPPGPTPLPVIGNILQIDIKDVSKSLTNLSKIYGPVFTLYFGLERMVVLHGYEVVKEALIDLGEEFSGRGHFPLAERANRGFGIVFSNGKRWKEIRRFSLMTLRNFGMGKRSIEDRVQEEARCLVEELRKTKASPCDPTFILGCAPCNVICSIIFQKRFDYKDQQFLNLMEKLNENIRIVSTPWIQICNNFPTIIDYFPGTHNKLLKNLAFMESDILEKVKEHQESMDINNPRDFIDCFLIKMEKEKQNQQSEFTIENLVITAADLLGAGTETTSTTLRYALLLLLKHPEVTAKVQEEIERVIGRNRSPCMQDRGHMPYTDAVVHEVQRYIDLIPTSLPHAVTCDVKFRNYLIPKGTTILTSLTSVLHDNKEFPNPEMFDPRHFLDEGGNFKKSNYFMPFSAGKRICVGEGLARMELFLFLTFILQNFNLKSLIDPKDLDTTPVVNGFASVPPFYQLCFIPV
The series can be described thus: CYP inhibition in human liver microsomes (Eurofins protocol ITEMG232). The series is classed as in vitro ADME. The note with it: substrate omeprazole; for CYP2C19 Inh %: 10 μM; for inhibition at 10 µM: probe omeprazole, read-out: CYP2C19 Inh %. Here is the method: as §1, §2

Series [5] has as its target T4, CYP2B6 (Homo sapiens, UniProt P20813).
T4 construct: using isoform-specific substrates incubated with human liver microsomes; tissue Eurofins ITEMG232; host or cells: human liver microsomes
T4 sequence (P20813 1-491): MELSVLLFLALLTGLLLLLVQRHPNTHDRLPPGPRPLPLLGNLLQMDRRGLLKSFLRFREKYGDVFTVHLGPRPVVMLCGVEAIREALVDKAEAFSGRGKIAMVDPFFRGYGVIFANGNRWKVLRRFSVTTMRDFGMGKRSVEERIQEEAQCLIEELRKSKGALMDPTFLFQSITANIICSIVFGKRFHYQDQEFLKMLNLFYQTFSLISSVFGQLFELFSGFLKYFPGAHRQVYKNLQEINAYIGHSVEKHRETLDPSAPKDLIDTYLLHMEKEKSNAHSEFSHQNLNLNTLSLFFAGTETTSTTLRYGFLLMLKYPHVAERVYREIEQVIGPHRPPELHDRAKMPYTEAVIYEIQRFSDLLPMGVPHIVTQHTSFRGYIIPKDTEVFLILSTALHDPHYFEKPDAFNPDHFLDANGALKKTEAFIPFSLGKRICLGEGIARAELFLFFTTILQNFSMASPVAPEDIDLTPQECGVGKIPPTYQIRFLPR
The description is as above. The series is classed as in vitro ADME. The settings on record: substrate bupropion; for CYP2B6 Inh %: 10 μM; for inhibition at 10 µM: probe bupropion, read-out: CYP2B6 Inh %. Here is the method:
as §1, §2

For series [6], the target named is T5, CYP2C8 (Homo sapiens, UniProt P10632).
T5 construct: using isoform-specific substrates incubated with human liver microsomes; tissue Eurofins ITEMG232; host or cells: human liver microsomes
T5 sequence (P10632 1-490): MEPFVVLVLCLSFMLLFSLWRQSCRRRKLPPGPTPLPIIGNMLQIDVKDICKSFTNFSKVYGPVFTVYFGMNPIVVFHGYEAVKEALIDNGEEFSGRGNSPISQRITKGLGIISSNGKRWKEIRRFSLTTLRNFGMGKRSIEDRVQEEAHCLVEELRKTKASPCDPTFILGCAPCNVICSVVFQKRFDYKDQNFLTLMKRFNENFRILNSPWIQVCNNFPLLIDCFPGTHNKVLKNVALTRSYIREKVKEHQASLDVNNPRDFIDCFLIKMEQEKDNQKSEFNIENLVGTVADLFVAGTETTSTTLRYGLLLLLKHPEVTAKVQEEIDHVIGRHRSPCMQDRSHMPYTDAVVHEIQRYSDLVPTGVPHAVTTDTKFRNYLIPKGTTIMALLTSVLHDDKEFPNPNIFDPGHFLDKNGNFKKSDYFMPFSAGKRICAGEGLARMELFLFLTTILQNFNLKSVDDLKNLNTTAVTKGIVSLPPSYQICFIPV
Described as above. In kind it is in vitro ADME. The note with it: substrates paclitaxel and amodiaquine; for CYP2C8 Inh %: 10 μM; for inhibition at 10 µM: probe paclitaxel and amodiaquine, read-out: CYP2C8 Inh %. Here is the method:
as §1, §2

Series [7] deals with T6, CYP2D6 (Homo sapiens, UniProt P10635).
T6 construct: tissue Eurofins ITEMG232; host or cells: human liver microsomes
T6 sequence (P10635 whole entry): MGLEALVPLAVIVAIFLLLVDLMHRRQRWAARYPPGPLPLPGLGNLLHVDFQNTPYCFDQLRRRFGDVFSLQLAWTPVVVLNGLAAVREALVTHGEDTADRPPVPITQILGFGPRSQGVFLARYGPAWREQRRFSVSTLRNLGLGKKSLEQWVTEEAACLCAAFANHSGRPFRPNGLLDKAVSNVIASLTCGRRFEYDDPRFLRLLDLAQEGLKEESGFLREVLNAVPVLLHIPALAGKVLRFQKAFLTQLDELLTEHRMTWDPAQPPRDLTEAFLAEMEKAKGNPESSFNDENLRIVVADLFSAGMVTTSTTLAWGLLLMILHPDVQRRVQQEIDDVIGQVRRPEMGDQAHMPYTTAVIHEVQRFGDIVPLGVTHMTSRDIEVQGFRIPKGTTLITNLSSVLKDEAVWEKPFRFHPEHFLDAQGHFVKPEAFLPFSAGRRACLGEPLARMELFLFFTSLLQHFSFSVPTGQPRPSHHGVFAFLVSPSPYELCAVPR
Described as above. The note with it: substrate dextromethorphan; for CYP2D6 Inh %: 10 μM; for inhibition at 10 µM: probe dextromethorphan, read-out: CYP2D6 Inh %. The series is classed as in vitro ADME. The method, then: as §1, §2

Series [8] deals with CYP2C9 (Homo sapiens, UniProt P11712). The description is as above. The note with it: substrate diclofenac; for CYP2C9 Inh %: 10 μM; for inhibition at 10 µM: probe diclofenac, read-out: CYP2C9 Inh %. Set-up: using isoform-specific substrates incubated with human liver microsomes; tissue Eurofins ITEMG232; host or cells: human liver microsomes. The series is classed as in vitro ADME. Here is the method: as §1, §2
CYP2C9, sequence (P11712 whole entry, canonical isoform): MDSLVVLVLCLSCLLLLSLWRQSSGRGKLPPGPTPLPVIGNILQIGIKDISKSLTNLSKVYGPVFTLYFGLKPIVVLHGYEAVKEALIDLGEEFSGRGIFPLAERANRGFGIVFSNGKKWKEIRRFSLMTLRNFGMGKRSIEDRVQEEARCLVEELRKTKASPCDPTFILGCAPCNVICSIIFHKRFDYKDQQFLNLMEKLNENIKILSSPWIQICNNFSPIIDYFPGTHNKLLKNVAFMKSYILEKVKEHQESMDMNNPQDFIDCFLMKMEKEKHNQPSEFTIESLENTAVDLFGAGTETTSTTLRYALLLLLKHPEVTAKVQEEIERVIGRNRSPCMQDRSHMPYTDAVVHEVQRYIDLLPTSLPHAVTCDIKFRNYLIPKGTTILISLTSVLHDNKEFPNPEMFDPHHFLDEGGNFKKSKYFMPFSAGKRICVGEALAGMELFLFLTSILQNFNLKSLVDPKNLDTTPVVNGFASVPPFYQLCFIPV

CYP3A4, sequence (P08684 whole entry, canonical isoform): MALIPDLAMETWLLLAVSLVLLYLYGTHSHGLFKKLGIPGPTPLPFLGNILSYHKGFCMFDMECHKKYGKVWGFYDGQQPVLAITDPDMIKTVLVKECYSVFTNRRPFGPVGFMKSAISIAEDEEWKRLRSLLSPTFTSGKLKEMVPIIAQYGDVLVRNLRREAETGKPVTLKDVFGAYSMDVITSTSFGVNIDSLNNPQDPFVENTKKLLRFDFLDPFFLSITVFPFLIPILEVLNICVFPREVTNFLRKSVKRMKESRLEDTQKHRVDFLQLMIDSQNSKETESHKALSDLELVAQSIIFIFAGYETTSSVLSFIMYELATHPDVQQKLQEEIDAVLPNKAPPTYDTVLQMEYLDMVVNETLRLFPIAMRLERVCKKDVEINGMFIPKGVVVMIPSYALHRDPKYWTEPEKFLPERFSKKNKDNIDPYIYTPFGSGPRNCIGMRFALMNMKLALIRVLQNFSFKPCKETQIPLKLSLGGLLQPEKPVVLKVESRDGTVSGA

As for `CCOC(=O)NS(=O)(=O)c1sc(CC(C)C)cc1-c1ccc(Cn2ccnc2C)c(F)c1.O=C(O)C(F)(F)F` [Example 1, Ethyl (3-(3-fluoro-4-((2-methyl-1H-imidazol-1-yl)methyl)phenyl)-5-isobutylthiophen-2-yl)sulfonvicarbamate trifluoroacetic acid], the “CYP3A4 midazolam Inh %” value in series [1] is listed as −42%. Moreover, the concentration for half-maximal inhibition (IC50) was 2.4 nM in series [2] and above 1000 nM in series [3]. The “CYP2C19 Inh %” value in series [4] was found to be 37%. In series [5], the “CYP2B6 Inh %” value is reported as 39%. Further, in series [6], the “CYP2C8 Inh %” value is reported as 37%. Besides, the “CYP2D6 Inh %” value in series [7] came out at 45%. Further, the “CYP2C9 Inh %” value in series [8] was 64%.

As for `COCCOC(=O)NS(=O)(=O)c1sc(CC(C)C)cc1-c1ccc(Cn2ccnc2C)c(F)c1.O=C(O)C(F)(F)F` [Example 3], in series [1], the “CYP3A4 midazolam Inh %” value is on record as −52%. Moreover, the values for the concentration for half-maximal inhibition (IC50) in series [2] and in series [3] were 3.5 nM and above 1000 nM, respectively. Also, in series [4], the “CYP2C19 Inh %” value came out at 39%. The “CYP2B6 Inh %” value in series [5] turned out to be 36%. Further, the “CYP2C8 Inh %” value in series [6] is given as 26%. The “CYP2D6 Inh %” value in series [7] is listed as 44%. Besides, in series [8], the “CYP2C9 Inh %” value was 58%.

Regarding `CCc1nccn1Cc1ccc(-c2cc(CC(C)C)sc2S(=O)(=O)NC(=O)OCc2ccc(F)cc2)cc1F.O=C(O)C(F)(F)F` [Example 6, 4-Fluorobenzyl (3-(4((2-ethyl-1H-imidazol-1-yl)methyl)-3-fluorophenyl)-5-isobutylthio-phen-2-yl)sulfonylcarbamate trifluoroacetic acid], in series [1], the “CYP3A4 midazolam Inh %” value was −39%. In addition, the IC50 is 1.8 nM in series [2] and above 1000 nM in series [3]. Moreover, the “CYP2C19 Inh %” value in series [4] is on record as 52%. In series [5], the “CYP2B6 Inh %” value is recorded as 30%. In addition, the “CYP2C8 Inh %” value in series [6] stood at 55%. Further, the “CYP2D6 Inh %” value in series [7] is on record as 50%. In series [8], the “CYP2C9 Inh %” value turned out to be 72%.

For the molecule `CCOC(=O)NS(=O)(=O)c1sc(CC(C)C)cc1-c1ccc(Cn2ccnc2CC)c(F)c1.O=C(O)C(F)(F)F` [Example 7, Ethyl (3-(4-((2-ethyl-1H-imidazol-1-yl)methyl)-3-fluorophenyl)-5-isobutylthiophen-2-30 yl)sulfonylcarbamate trifluoroacetic acid], in series [1], the “CYP3A4 midazolam Inh %” value is −31%. The 50% inhibitory concentration (IC50) was 1.8 nM in series [2] and above 1000 nM in series [3]. Besides, in series [4], the “CYP2C19 Inh %” value was 41%. For the same molecule, in series [5], the “CYP2B6 Inh %” value is given as 26%. Further, the “CYP2C8 Inh %” value in series [6] came out at 66%. In series [7], the “CYP2D6 Inh %” value was 39%. In addition, the “CYP2C9 Inh %” value in series [8] turned out to be 64%.

With `CCOC(=O)NS(=O)(=O)c1sc(CC(C)C)cc1-c1ccc(Cn2ccnc2C(C)C)c(F)c1.O=C(O)C(F)(F)F` [Example 8, Ethyl (3-(3-fluoro-4-((2-isopropyl-1H-imidazol-1-yl)methyl)phenyl)-5-isobutylthio-phen-2-yl)sulfonylcarbamate trifluoroacetic acid], in series [1], the “CYP3A4 midazolam Inh %” value was −52%. The half-inhibitory concentration (IC50) in series [2] is 3.5 nM; in series [3], above 1000 nM. In addition, in series [4], the “CYP2C19 Inh %” value is reported as 39%. In series [5], the “CYP2B6 Inh %” value came out at 36%. In addition, the “CYP2C8 Inh %” value in series [6] is 26%. For the same molecule, the “CYP2D6 Inh %” value in series [7] is 44%. Besides, the “CYP2C9 Inh %” value in series [8] turned out to be 58%.

For the molecule `Cc1nccn1Cc1c(F)cc(-c2cc(CC(C)C)sc2S(=O)(=O)NC(=O)OCCO)cc1F` [Example 18, 2-Hydroxyethyl (3-(3,5-difluoro-4-((2-methyl-1H-imidazol-1-yl)methyl)phenv1)-5-isobutylthiophen-2-yl)sulfonylcarbamate], the “CYP3A4 midazolam Inh %” value in series [1] was −35.6%. The IC50 in series [2] worked out at 0.87 nM; in series [3], 16000 nM. Besides, in series [4], the “CYP2C19 Inh %” value is on record as 5.9%. The “CYP2B6 Inh %” value in series [5] was found to be 33.3%. Besides, the “CYP2C8 Inh %” value in series [6] is on record as 56.1%. The “CYP2D6 Inh %” value in series [7] amounted to 48.8%. In series [8], the “CYP2C9 Inh %” value is on record as 77.0%.

Take `Cc1nccn1Cc1ccc(-c2cc(CC(C)C)sc2S(=O)(=O)NC(=O)OCCOC(=O)C(C)(C)C)cc1F` [Example 19, 2-((((3-(3-Fluoro-4-((2-methyl-1H-imidazol-1-yl)methyl)phenyl)-5-isobutylthiophen-2-yl)sulfonyl)carbamoyl)oxy)ethyl pivalate]: the inhibition at 10 µM in series [1] was 43.4%; in series [4], 54.1%; in series [5], 26.9%; in series [6], 83.2%; in series [7] it was 31.3%; in series [8], 62.3%.

Consider `CC(C)Cc1cc(-c2ccc(Cn3ccnc3C(C)(C)C)c(F)c2)c(S(=O)(=O)NC(=O)c2ccccn2)s1` [Example 27, N-((3-(4-((2-(Tert-Butyl)-1H-imidazol-1-yl)methyl)-3-fluorophenyl)-5-isobutylthio-phen-2-yl)sulfonyl)picolinamide], for which the inhibition at 10 µM in series [1] worked out at 7.3%; in series [4], 43.2%; in series [5], 25%; in series [6], 65.7%; in series [7] it was 20.1%; in series [8] it was 58.4%.

As a reminder, the IC50 is the midpoint of a concentration-inhibition curve.

These data come from US20230348444A1, “NOVEL COMPOUNDS FOR USE IN THE TREATMENT OF DISEASES ASSOCIATED WITH ANGIOTENSIN II” (Vicore Pharma AB, priority 2020, published 2023).
